Source: patent publication US12642791B2, “Inhibitors of lysyl oxidases” (UNIVERSITY OF SOUTH CAROLINA, priority 2021, dated 2026)

Assays:
MDA-MB-231 xenografts = test: Acquired doxorubicin resistant xenografts; assay type: in vivo; conditions: BAPN 100 mg/kg added to doxorubicin 2.5 mg/kg
Experimental: To test the ability of LOX inhibition to overcome doxorubicin resistance in chemotherapy-refractory TNBC in vivo, the inventors first treated MDA-MB-231 xenografts with doxorubicin until an accelerated tumor growth was achieved.
At this point, BAPN (100 mg/kg) was added to half of the doxorubicin-resistant tumors while the rest continued to receive doxorubicin alone (2.5 mg/kg).
FIG. 26. Inhibiting LOX overcomes resistance in acquired doxorubicin resistant MDA-MB-231 xenografts. A. Tumor growth in xenografts treated with low dose doxorubicin until resistance develops followed by treatment with the combination of doxorubicin (2.5 mg/kg) and the LOX inhibitor, BAPN (100 mg/kg). B. Relative LOX activity in tumors from A. C. Representative images of Picrosirius red in tumors from A.

MDA-MB-15714 = test: Doxorubicin re-sensitization of collagen I-embedded TNBC cells; assay type: cell-based, human
MDA-MB-43614 = test: as above; assay type: cell-based, human
MDA-MB-231 cells = test: Doxorubicin chemosensitization in 3D collagen I culture; assay type: cell-based, human; conditions: collagen I-embedded cells, combination with doxorubicin
Experimental: Collagen solution was prepared at a concentration of 0.5-1 mg/ml from the rat tail collagen I (Corning, USA) with a neutralization step including the addition of 1N NaOH solution. Cells were trypsinazed and resuspended in collagen:matrigel mix (1:1). 8×10^3 cells were seeded into 96-well or μ-Slide 8-well glass bottom chambers. After 1 hour of incubation at room temperature, media was added on top of the solidified collagen:matrigel mix. Drug treatments were done 12 hours after cell seeding.
Cells were embedded in type I collagen:matrigel mix as described above. Cells were grown in the presence of doxorubicin or LOX inhibitors alone or combination of LOX inhibitors with doxorubicin for 48 hours. After the treatment, cell viability was measured by using 3D Cell Titer Glo (Promega, USA) kit.

[1] = test system: cellular lysyl oxidase (LOX) activity, MDA-MB-231 cells; test: Cell-based lysyl oxidase activity assay (Abcam kit); set-up: species or system human; conditions: read-out: IC50 for cellular lysyl oxidase inhibition
Text: As the available LOX inhibitors are either not very potent or have toxicity, the inventors developed a robust screening pipeline shown in FIG. 28 to identify potent and safe LOX-specific and pan-LOX inhibitors. Briefly, a high-throughput cell-based LOX activity (Abcam) screen (HTS) was done for more than 5,000 drug-like compounds from the EXPRESS-Pick diversified library (4,480 molecules, ChemBridge) and Tocriscreen library of bioactive compounds (1,280 compounds, Tocris), each at a single concentration of 10 μM. […] The toxic molecules were counter screened with cell cytotoxicity assay and filtered out.
FIGS. 34. […] IC50 for cellular lysyl oxidase activity upon treatment of MDA-MB-231 cells with different LOX inhibitors. uM=microM.
For cell-based lysyl oxidase activity, fluorometric Lysly Oxidase Activity Assay Kit (Abcam, USA) was used according to manufacturer's instructions. Briefly, after the treatment, 50 μl of supernatant from each well was incubated with reagent mix and fluorescence measured in multimode-reader at Ex/Em=540/590 nm wavelength.

[2] = test system: MDA-MB-231 cells embedded in collagen I; test: ECM crosslinking by collagen and fibronectin immunofluorescence staining; assay type: cell-based, human
Experimental: FIG. 31. […] A. Inhibition of LOX activity in MDA-MB-231 cells treated with 5 μM of the LOX inhibitors. B. Doxorubicin sensitization with 6232 and its analogs, 6403 and 6415, in 3D collagen-I culture. C. Collagen and fibronectin staining of vehicle or 6232 or 6403 or 6415-treated MDA-MB-231 cells embedded in collagen I. BAPN is used as a positive control.
(§1) Immunofluorescence staining of cells was done in μ-Slide 8-well glass bottom chambers (Ibidi, Germany). Cells were fixed with 4% paraformaldehyde for 20 min, permeabilized with 0.5% Triton X-100 for 10 min and blocked in 5% BSA-PBS. Samples were incubated with primary (Collagen I, Fibronectin, F-actin, a-SMA) and secondary Alexa Fluor 647 or 488-labeled antibodies for 1.5 hours at room temperature. Cells were also counterstained with DAPI for 5 min. Images were acquired using ZEN 2012 SP5 (Black) LSM 700 (Carl Zeiss, DE).

Caki-1 cells = test: ECM crosslinking in kidney cancer cells; assay type: cell-based, human; conditions: 6232 at 10 uM, BAPN at 10 mM
Experimental: as §1

TM01278 PDX organoids = test: PDX-derived TNBC organoids, combination with doxorubicin; assay type: cell-based, human; conditions: BAPN (25 mM) with doxorubicin (40 nM), 3D culture with collagen I, 9 days
Experimental: FIG. 36. Combination of 6403 and 6415 with doxorubicin reduced the growth of the TNBC organoids. A. Representative images of TM01278 PDX organoids at day 0 and day 9 after treatment with doxorubicin (50 nM) and 6403 and 6415 treatments, alone or in combination. B. Quantification of organoid diameter and viability upon combination therapy for 9 days.
TNBC organoids were established from a fresh surgical tissue by cutting the tumor into small pieces and incubating in collagenase A solution with ROCK inhibitor on a shaker at 37° C. for 30 minutes. The collagenase activity was inhibited by adding FBS, and pipetting was done to ensure the formation of almost a single cell solution. After several washes with PBS, the cell pellet was dissolved in matrigel. Breast organoid media containing ROCK and GSK inhibitors was added after the Matrigel solidified. See, Sachs, N. et al. A Living Biobank of Breast Cancer Organoids Captures Disease Heterogeneity. Cell 172, 373-386 e310, doi:10.1016/j.cell.2017.11.010 (2018). For drug testing studies, organoids were disrupted to single cells by digesting at 37° C. for 30 mins with TrypLE (A1217701, Gibco, NY, USA) in the presence of 10 μM Rock inhibitor (s1049, Selleckchem, TX, USA). Organoids were plated into wells of 96 well plate (20.000 cells/well) on a collagen-coated surface with media containing 2% Matrigel (356252, Corning, NY, USA). Drugs were added 72 hours after plating. Cells were grown in the presence of drug or vehicle for 9 days, and photos were taken from each well to show the organoid size. Organoid viability was measured by using 3D Cell Titer Glo (Promega, USA) kit.

TM01278 PDX = test: Doxorubicin-resistant TNBC PDX tumors; assay type: in vivo
Experimental: FIG. 27. Targeting LOX in TNBC PDX organoids or tumors overcomes resistance. A. Scheme showing the selection pipeline of PDXs for in vivo testing. B. Correlation analysis of LOX mRNA expression with hypoxia and focal adhesion scores in 15 different TNBC PDX models. Red dots show the positions of the selected TM01278. C. Representative images of TM01278 PDX organoids at day 0 and day 9 after treatment with doxorubicin (40 nM) and BAPN (25 mM) treatment, alone or in combination (left) and quantification of organoid diameter upon combination therapy for 9 days (right) (n=12 (vehicle, Doxo, BAPN), n=11 (Doxo+BAPN)). D. Tumor growth of TM01278 PDX upon treatment with doxorubicin (2 mg/kg) and BAPN (100 mg/kg), alone or in combination (n=5). […] E. Quantification of Picrosirius red staining in PDX tumors from D (n=4). F. Doxorubicin fluorescence quantification in tumors from D (n=6). G. Western Blots of FAK/Src signaling in PDXs treated with doxorubicin and BAPN alone or in combination.

[3] = in vivo; cited from earlier work

SMILES: N#CCCN [BAPN, 6-aminopropionitrile]
- LOX activity in tumors (MDA-MB-231 xenografts): reduction in LOX activity
- fibrillar collagen in tumors (MDA-MB-231 xenografts): reduction
- survival (MDA-MB-231 xenografts): improved survival
- tumor growth (MDA-MB-231 xenografts): significant decrease in tumor growth
- doxorubicin re-sensitization (MDA-MB-15714): re-sensitized
- doxorubicin re-sensitization (MDA-MB-43614): re-sensitized
- doxorubicin sensitization (MDA-MB-231 cells): re-sensitized
- IC50 [1]: > 100 µM
- ECM crosslinking (collagen and fibronectin staining) [2]: decrease in ECM crosslinking
- ECM crosslinking (Caki-1 cells): decrease in ECM crosslinking
- tumor organoid size (TM01278 PDX organoids): significantly decreased tumor organoid size
- LOX activity (TM01278 PDX; BAPN 100 mg/kg): reduced
- doxorubicin penetration (TM01278 PDX; BAPN 100 mg/kg): enhanced doxorubicin penetration
- fibrillar collagen content (TM01278 PDX; BAPN 100 mg/kg): reduced
- tumor growth (TM01278 PDX; BAPN 100 mg/kg with doxorubicin 2 mg/kg): reduced tumor growth
- toxicity in the clinic [3]: showed toxicity in the clinic
